# Test results as given in patent US20130230580A1, “Administration of SNS Neuroprotective Agents to Promote Hematopoietic Regeneration” (priority 2010, published 2013).
# “And” between values parts separate entries of the source, which are not always exact repeats. Equal values may be shown once. “Also recorded” adds a separate entry of the source.
# How the values were obtained:
# [1] = Survival after lethal irradiation and bone marrow transplantation; assay type: in vivo
# Method: To protect from kidney damage, mice were simultaneously subcutaneously (s.c.) injected with 1 mL of saline solution.
# (§1) To induce acute peripheral sympathectomy, mice received two i.p. injections of 60HDA (Sigma; 100 mg/kg on day 0; 250 mg/kg on day 2). Three days after the last injection of 60HDA mice were euthanized for analysis, transplanted (see below) or injected with 5-fluorouracil (see below).
# (§2) Mice were irradiated (1,200 cGy, two split doses, 3 hours apart) in a Cesium Mark 1 irradiator (JL Shepperd & associates). Three hours later, the indicated number of BMNCs was injected retroorbitally in the irradiated recipients under isoflurane (Phoenix Pharmaceuticals) anesthesia. Mice were allowed to recover and analyzed at the indicated time points.
# (§3) To induce neuroprotection from 60HDA, mice were injected with 4-MC (10 μg/kg; i.p.) or GDNF-Fc (5 μg per mice; s.c.) for 5 days, starting the treatment the same day as the first injection of 60HDA.
# [2] = Survival after 5FU injection in 60HDA-sympathectomized mice; assay type: in vivo
# Method: as §1
# (§4) To induce bone marrow ablation and force quiescent HSC to proliferate, 5FU (250 mg/kg; Sigma) was injected i.v. under isoflurane (Phoenix Pharmaceuticals) anesthesia. Mice were allowed to recover and analyzed at the indicated time points.
# as §3
# [3] = tested on: Nestin+ niche cells; assay: HSC niche cell analyses (Nestin+ cells, osteoblasts, endothelial cells, macrophages, α-SMA+ cells); assay type: in vivo
# Source text: Since the SNS directs HSC trafficking by acting on Nestin^+ niche cells through the β3 adrenergic receptor, the changes that occurred in the HSC niche after SNS injury and genotoxic insult were investigated. […] The reason for reduced Nestin^+ numbers in SNS-injured mice during BM recovery was then investigated.
# [4] = tested on: bone marrow; assay: Bone marrow regeneration after 5FU (or sublethal irradiation) in 60HDA-sympathectomized mice; assay type: in vivo
# Method: as §1, §4, §3
# (§5) Blood was harvested by retro-orbital sampling of mice anesthetized with isoflurane and collected in polypropylene tubes containing ethylenediaminetetraacetic acid (EDTA). Blood parameters were determined with an AcT differential counter (Beckman-Coulter). CFU-C assays were performed as described in He et al., Ann. Rev. Cell. Dev. Biol. 25:377 (2009), incorporated herein by reference. For flow cytometry, red blood cells were lysed thrice for 5 minutes at 4° C. in 0.15 M NH4Cl, cells were washed once in ice-cold PBS and counted in a hemocytometer. To determine Lin^−Sca1^+c-kit^+ or Lin^−Sca1^+c-kit^+ft13^− numbers, 10^6 cells were stained with the Mouse Lineage Panel (BD Biosciences) together with FITC-conjugated anti-Sca-1 antibody (BD Biosciences), PE-Cy7-conjugated anti-c-kit antibody (eBioscience) and PE-conjugated anti-flt3 antibody (eBioscience). Cells were further stained with streptavidin-Cy5 (Jackson Immunotech) and analyzed with a BD LSR11 system (BD Biosciences). Bone marrow was harvested by flushing the bone with 1 mL of ice-cold PBS, red blood cells were lysed once for 5 minutes at 4° C. in 0.15 M NH4Cl, cells were washed once in ice-cold PBS and counted with a hemocytometer. CFU-C and Lin^−Sca1^+c-kit^+ft13^− numbers were determined as above. In some experiments, CD150^+CD48^− cell numbers were determined by staining 5×10^6 cells with PE-anti-CD48 antibody (BD Biosciences) and PE-Cy7-anti-CD150 antibody (Biolegend).
# [5] = tested on: TH+ fibers; assay: Immunofluorescence quantification of TH+ sympathetic fibers in bone marrow / calvaria
# Method: Bones were collected and fixed for 1 hour in 4% paraformaldehyde (PFA) in PBS (Electron Microscopy Sciences) at 4° C. They were then post-fixed overnight in 1% PFA in PBS at 4° C. and cryoprotected for 24 hours in 30% sucrose. Bones were then included in OCT (Tissue Tek), sectioned (14 μm sections) in a Cryostat, and mounted on CFSA 4× Slides (Leica). TH^+ immunofluorescence staining was performed as previously described in Mendez-Ferrer, et al., Nature 452:442 (2008), incorporated herein by reference. For each mouse analyzed, the number of nerve fibers in 6 fields was quantified and plotted as per mm^2. For whole-mount immunofluorescence, calvaria were harvested by cutting along the temporal lines of the skull and immediately fixed in methanol. Bone tissues were blocked/permeabilized in PBS containing 20% FCS and 0.5% Triton and stained with APC-conjugated anti-PECAM CD31 antibody and TH (Millipore). Signal amplification for TH staining was achieved by using a signal amplification kit (Perkin Elmer). Whole-mount tissues were imaged face-down on an upright Olympus BX61WI microscope. The area between the frontal and parietal bones was identified by moving along the coronal suture and images were obtained from the same area for all mice, along the coronal vein on either side of the central vein. The numbers of individual nerve fibers running alongside blood vessels were quantified and plotted as per 100 μm vessel segment. All images were processed using Slidebook software (Intelligent Imaging Innovations, Inc.).
# [6] = tested on: bone marrow; assay: Bone marrow hematopoietic recovery after transplantation (BMNC, CFU-C, Lin-Sca1+c-kit+flt3- cells); assay type: in vivo, mice; conditions: for hematopoietic recovery in BM after transplantation (progenitors, Lin-Sca1+c-kit+flt3- cells, total BM): about 4 weeks / 30 days post-transplantation, vs saline
# Method: as §2, with “points. […]” for “points.”
# as §5
# [7] = Complete blood counts of moribund 6OHDA-treated mice after 5FU; assay type: in vivo; conditions: for CH / CHCM / HDW / HCT / Hgb / MCH / MCHC / RDW: moribund 6OHOA-treated mouse
# Method: as §1, §4, §5
# [8] = tested on: bone marrow; assay: CFU-C homing efficiency to bone marrow; assay type: in vivo; conditions: compared to control mice, 24 hours after irradiation and BMNC injection
# [9] = tested on: bone marrow; assay: Steady-state bone marrow analysis after cisplatin or 60HDA treatment; assay type: in vivo, mice; conditions: 3 days after last 60HDA injection
# Method: To protect from kidney damage, mice were simultaneously subcutaneously (s.c.) injected with 1 mL of saline solution. Four weeks after the last injection of cisplatin, mice were euthanized for analysis, transplanted (see below) or mobilized with granulocyte colony-stimulating factor (G-CSF, see below).
# as §1
# Blood was harvested by retro-orbital sampling of mice anesthetized with isoflurane and collected in polypropylene tubes containing ethylenediaminetetraacetic acid (EDTA). Blood parameters were determined with an AcT differential counter (Beckman-Coulter). […] For flow cytometry, red blood cells were lysed thrice for 5 minutes at 4° C. in 0.15 M NH4Cl, cells were washed once in ice-cold PBS and counted in a hemocytometer. […] Cells were further stained with streptavidin-Cy5 (Jackson Immunotech) and analyzed with a BD LSR11 system (BD Biosciences). Bone marrow was harvested by flushing the bone with 1 mL of ice-cold PBS, red blood cells were lysed once for 5 minutes at 4° C. in 0.15 M NH4Cl, cells were washed once in ice-cold PBS and counted with a hemocytometer. […]
# [10] = target: T1, β3 adrenergic receptors (Mus musculus, UniProt P25962); assay: β3 adrenergic blockade during 5FU-induced BM regeneration; assay type: in vivo, mice
# T1 construct: β3 adrenergic receptors expressed by niche cells; from tissue; host or cells: live mice (wild-type or Adrb2-/-); receptor expressed by bone marrow niche cells
# Method: as §4
# To investigate the role of β2 or β3 adrenergic receptors in bone marrow regeneration, β3 adrenergic signaling was blocked in wild-type or Adrb2^tm1Bkk/J mice by injecting the β3-specific antagonist SR59230A (5 mg/kg, i.p.; Sigma), daily for 3 days.
# [11] = cisplatin-treated mice plus 4-MC
# [12] = 60HDA-lesioned mice plus agent, 12 days after 5FU
# [13] = 10 days after 5FU (250 mg/kg), listed as 6OHOA
# [14] = 60HDA-treated mice, eight days after 5FU
# T1 sequence (P25962 whole entry): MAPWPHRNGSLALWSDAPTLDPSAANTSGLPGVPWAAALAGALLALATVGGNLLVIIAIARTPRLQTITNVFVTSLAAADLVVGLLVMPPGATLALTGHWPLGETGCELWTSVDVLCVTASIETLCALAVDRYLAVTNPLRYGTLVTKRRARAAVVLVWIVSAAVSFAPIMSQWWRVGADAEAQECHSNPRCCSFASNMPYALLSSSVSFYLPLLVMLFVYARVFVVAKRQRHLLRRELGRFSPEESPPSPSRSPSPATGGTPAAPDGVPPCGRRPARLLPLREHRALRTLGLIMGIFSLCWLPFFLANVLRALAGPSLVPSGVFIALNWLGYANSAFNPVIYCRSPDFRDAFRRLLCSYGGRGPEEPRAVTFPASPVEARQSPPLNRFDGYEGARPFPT
smiles,measurement,setting,value
"Cc1ccc(O)c(O)c1 [4-MC, 4-methylcatechol]",survival after transplantation with neuroprotective agent,[1]; cisplatin-treated mice plus agent,no death was observed; also recorded: completely abolished transplant-associated death; also recorded: completely prevented neuropathy-induced death
same,survival after 5FU with neuroprotective agent,[2]; 60HDA-lesioned mice plus agent,completely protected from death; also recorded: completely abolished 5FU-associated cell death
same,Nestin+ cell number 12 days after 5FU,[3]; 60HDA mice plus 4-MC,restored normal Nestin^+ cell number
same,SNS-injury-induced expansion of Nestin+ cells and osteoblasts prior to 5FU,[3]; 60HDA mice plus 4-MC,abolished the expansion
same,"other niche cells (endothelial cells, BM macrophages, perivascular α-SMA cells)","[3]; 60HDA mice plus 4-MC, before or after 5FU",did not affect other niche cells
same,"endothelial cells, BM macrophages, perivascular α-SMA+ cells before BMT",[3]; [11],without affecting
same,expansion in Nestin+ cells and osteoblasts before BMT,[3]; [11],ameliorated the expansion
same,HSC recovery by competitive repopulation assays,"[4]; 60HDA-lesioned mice plus 4-MC, after 5FU",significant increase in HSC recovery
same,"hematopoietic recovery after 5FU with neuroprotective agent (BM, LSKF cells)",[4]; [12],increased hematopoietic recovery; also recorded: significantly increased
same,BM recovery after 5FU in Tα1-Cre:TrkANeo/Neo mice,"[4]; sympathectomized mice treated with 4-MC, TrkA restricted to nervous system",recovery comparable to that of wild-type mice
same,TH+ / SNS fiber recovery,[5]; [12],induced TH^+ fiber recovery; also recorded: significant recovery in the number of BM SNS fibers; also recorded: protects sympathetic fibers
same,increase in bone marrow TH+ fiber density,"[5]; cisplatin+4-MC compared to cisplatin+saline, p<0.05",2 fold
same,"HSC frequency and absolute numbers (LTC-IC, competitive repopulation assays)","[6]; cisplatin-treated mice plus 4-MC, after transplantation",higher frequency and absolute numbers of HSC
same,"bone marrow regeneration after transplantation with neuroprotective agent (BM cellularity, progenitor counts, LSKF cells)","[6]; cisplatin-treated mice plus agent, one month after transplantation",accelerated bone marrow regeneration; also recorded: significantly improves hematopoietic cell counts
"NCCc1cc(O)c(O)cc1O [60HDA, 6-hydroxydopamine]",mortality after transplantation,"[1]; lethally irradiated, transplanted with wild-type BMNC",significant increase in mortality
same,cause of reduced survival after 5FU,[7]; 60HDA-sympathectomized mice,BM failure
same,CH,[7]; 8 days after 5FU (250 mg/kg),13.3 pg and 12.8 pg and 12.9 pg
same,CHCM,[7]; 8 days after 5FU (250 mg/kg),32.8 g·dL and 31.8 g·dL and 31.2 g·dL
same,HDW,[7]; 8 days after 5FU (250 mg/kg),2.34 g·dL and 1.78 g·dL and 1.74 g·dL
same,CH,[7]; 9 days after 5FU (250 mg/kg),13.5 pg
same,CHCM,[7]; 9 days after 5FU (250 mg/kg),33.7 g·dL and 33 g·dL
same,HCT,[7]; 9 days after 5FU (250 mg/kg),11
same,HDW,[7]; 9 days after 5FU (250 mg/kg),2.27 g·dL and 2.34 g·dL
same,Hgb,[7]; 9 days after 5FU (250 mg/kg),3 g·dL
same,MCH,[7]; 9 days after 5FU (250 mg/kg),9.7 pg and 9.1 pg
same,MCHC,[7]; 9 days after 5FU (250 mg/kg),24.3 g·dL and 22.3 g·dL
same,RDW,[7]; 9 days after 5FU (250 mg/kg),12.5 and 12.6
same,CH,[7]; [13],12.8 pg and 12.9 pg
same,CHCM,[7]; [13],29.3 g·dL and 30.5 g·dL
same,HCT,[7]; [13],13 and 10
same,HDW,[7]; [13],1.67 g·dL and 2.03 g·dL
same,Hgb,[7]; [13],4 g·dL and 6 g·dL
same,MCH,[7]; [13],12.8 pg and 18.9 pg
same,MCHC,[7]; [13],29.3 g·dL and 44.4 g·dL
same,RDW,[7]; [13],12.2 and 13.2
same,CH,[7]; 11 days after 5FU (250 mg/kg),13.2 pg
same,CHCM,[7]; 11 days after 5FU (250 mg/kg),30.7 g·dL
same,HCT,[7]; 11 days after 5FU (250 mg/kg),14
same,HDW,[7]; 11 days after 5FU (250 mg/kg),1.95 g·dL
same,Hgb,[7]; 11 days after 5FU (250 mg/kg),3 g·dL
same,MCH,[7]; 11 days after 5FU (250 mg/kg),10.5 pg
same,MCHC,[7]; 11 days after 5FU (250 mg/kg),24.3 g·dL
same,RDW,[7]; 11 days after 5FU (250 mg/kg),11.3
same,CH,[7]; 12 days after 5FU (250 mg/kg),12.6 pg
same,CHCM,[7]; 12 days after 5FU (250 mg/kg),31.1 g·dL
same,HCT,[7]; 12 days after 5FU (250 mg/kg),15
same,HDW,[7]; 12 days after 5FU (250 mg/kg),2.31 g·dL
same,Hgb,[7]; 12 days after 5FU (250 mg/kg),3 g·dL
same,MCH,[7]; 12 days after 5FU (250 mg/kg),9.3 pg
same,MCHC,[7]; 12 days after 5FU (250 mg/kg),22.9 g·dL
same,RDW,[7]; 12 days after 5FU (250 mg/kg),13.5
same,survival after 5FU,[2]; 60HDA-sympathectomized vs saline mice,dramatically reduced their survival
same,Nestin+ cell death (apoptosis),"[3]; 60HDA mice, 24 hours after 5FU",significant increase
same,"endothelial cells, BM monocyte/macrophages, α-SMA+ perivascular cells 12 days after 5FU",[3]; 60HDA- vs saline-treated mice,failed to detect differences
same,Nestin+ cell numbers 12 days after 5FU,[3]; 60HDA-sympathectomized mice,severe deficit
same,"endothelial cells, osteoblasts, CD68+ cells, α-SMA+ perivascular cells by immunofluorescence prior to 5FU",[3]; 60HDA-treated vs saline mice,did not reveal differences
same,number of Nestin+ cells prior to 5FU,[3]; 60HDA-treated vs saline mice,significant increase
same,osteoblast numbers prior to 5FU,[3]; 60HDA-treated vs saline mice,slightly increased
same,hematopoietic recovery after 5FU,"[4]; 60HDA-sympathectomized mice, day 12",significantly impaired hematopoietic recovery
same,BM recovery after sublethal irradiation,"[4]; 60HDA-treated mice, 12 days after irradiation",Reduced BM recovery
same,Lin-Sca1+c-kit+flt3- cell expansion after 5FU,"[4]; 60HDA-treated mice, days 4 to 12",blunted
same,LSK cell proliferation,[4]; [14],increased proliferation
same,LSK cell viability,[4]; [14],reduced viability
same,CFU-C homing efficiency,[8],No differences; also recorded: No defect
same,"BM cellularity, CFU-C, Lin-Sca1+c-kit+flt3-, CD48-CD150+ cell numbers, Lin-Sca1+c-kit+ cell cycling",[9],did not alter; also recorded: does not induce significant changes
same,"hematopoietic recovery in BM after transplantation (progenitors, Lin-Sca1+c-kit+flt3- cells, total BM)",[6],significant reductions in hematopoietic recovery; also recorded: delayed hematopoietic recovery
CCc1ccccc1OC[C@@H](O)CN[C@H]1CCCc2ccccc21 [SR59230A],hematopoietic regeneration after 5FU with both β2 and β3 receptors disrupted,[10]; Adrb2-/- mice plus SR59230A,most severe impairment; also recorded: severe impairment in hematopoietic regeneration
same,hematopoietic recovery after 5FU under β3 blockade,"[10]; wild-type mice, SR59230A alone",sufficient to impair hematopoietic regeneration; also recorded: partially compromised hematopoietic recovery
CC[C@]1(O)C[C@H]2CN(CCc3c([nH]c4ccccc34)[C@@](C(=O)OC)(c3cc4c(cc3OC)N(C=O)[C@H]3[C@@](O)(C(=O)OC)[C@H](OC(C)=O)[C@]5(CC)C=CCN6CC[C@]43[C@@H]65)C2)C1 [vincristine],BM recovery 3 months after transplantation,"[6]; mouse, in vivo",not yet completely recovered
same,HSC content by competitive repopulation assays,"[6]; mouse, in vivo",reduced HSC content
N.N.O=C([O-])C1(C(=O)[O-])CCC1.[Pt+2] [carboplatin],"hematopoietic recovery in BM after transplantation (progenitors, Lin-Sca1+c-kit+flt3- cells, total BM)",[6],not
